Results taken from article PMC6033896, “Discovery of Mcl-1 inhibitors from integrated high throughput and virtual screening” (Scientific Reports, 2018).
Values joined by “and” are separate entries in the source; they are usually repeats but may differ in a detail not shown here. Equal values may be shown once.

What was measured:
Mcl-1 protein [1] = target: T1, Mcl-1 protein (Homo sapiens, UniProt Q07820); test: SPR-based solution competitive binding assay, immobilized biotin-labelled Bim BH3 peptide; conditions: Mcl-1 20 nM; competition with immobilized Bim BH3 peptide
T1 construct: human Mcl-1 (residues 171–323); His tag (pHis-TEV vector) (N, cleaved yes); made in house; host or cells: E. coli BL21 (DE3)
T1 sequence (Q07820 171-323): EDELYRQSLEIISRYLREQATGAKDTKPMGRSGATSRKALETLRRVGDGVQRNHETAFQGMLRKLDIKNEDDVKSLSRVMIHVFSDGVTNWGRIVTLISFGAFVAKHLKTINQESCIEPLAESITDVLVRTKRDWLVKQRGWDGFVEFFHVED
Procedure: The solution competitive SPR-based assay was performed on Biacore 2000 in a similar way as was already reported. Briefly, N terminal biotin-labelled Bim BH3 peptide (141–166 amino acids) was immobilized on streptavidin (SA) chip giving a density of 800 RU (Response Units). The pre-incubated Mcl-1 protein (20 nM) with tested small-molecule inhibitors for at least 30 min was injected over the surfaces of the chip using assay buffer HBS-P (GE, #BR100368). Response units were measured at 15 s in the dissociation phase, and IC50 values were determined by nonlinear least-squares analysis using GraphPad Prism 6.0 software.

Mcl-1 protein [2] = target: T1, Mcl-1 protein; test: TR-FRET binding assay with Bid-Dy647 peptide; conditions: 10 nM Mcl-1, 10 nM Bid-Dy647
Procedure: TR-FRET was performed using black 384-well plates in an Envision Multilabel plate reader (Perkin Elmer Life Sciences). To each well, a mixture of 10 nM Bid-Dy647 peptide (79–99), 10 nM Mcl-1 protein, and Europium-anti-His antibody were added to a final volume of 25 μl in the assay buffer (20 mM potassium phosphate, pH 7.5; 50 mM NaCl, 1 mM EDTA and 0.05% Pluronic F68). The TR-FRET signals were measured with an Envision Multilabel plate reader after 2 h of incubation. (Ex 340 nm, Em615 nm and Em665 nm) and expressed as FRET signal ratio (F665 nm/[…] * 104)

Mcl-1 protein [3] = target: T1, Mcl-1 protein; test: FP-based competitive binding assay with fluorescent labelled Bid BH3 peptide; conditions: for Ki: calculated from FP IC50; for IC50: competition with fluorescent Bid probe 2 nM, 20 nM Mcl-1 for purchased compounds, 10 nM for synthesized library
Procedure: (§1) FP-based binding assays were developed and optimized to determine the binding affinities of inhibitors to the recombinant Mcl-1, Bcl-2, Bcl-xL, and Bfl-1, proteins. […] The fluorescent Bid probe was fixed at 2 nM for all assays, except for Bfl-1, where 1 nM was used. 5 μL of the tested compound in DMSO and 120 μL of protein/probe complex in the assay buffer were added to assay plates (Corning #3792), incubated at room temperature for 3 h, and the polarization values (mP) were measured at an excitation wavelength of 485 nm and an emission wavelength of 530 nm using the plate reader Synergy H1 Hybrid, BioTek. IC50 values were determined by nonlinear regression fitting of the competition curves (GraphPad Prism 6.0 Software). The Ki values were calculated as described previously.
(§2) 1. List of compounds purchased from vendors
(§3) Compound s 5, 6, 7, 8 and S3, S4, S5, S6 S7, S8, S9, S10, S17 were purchased from […]
(§4) Compound s 9, 10, 11 and S11, S12, S13 were purchased from I nterbioscreen […]
His-tagged proteins containing human Mcl-1 (residues 171–323), the isoform 2 construct of the human Bcl-2 [Bcl2-2 construct for protein production starts with the Bcl2 sequence of 1-34 a a, followed by the Bcl-xL seq uence of 35-50 aa, and ends with the Bcl-2 sequenc e of 92-202aa.], Bcl-xL (Human Bcl-xL protein, which has an internal deletion for the 45 -85 amino acid residues and a C -terminal truncation for the amino acid residues 212-233), and Bf l-1 (residues 1-151), were expres sed from the pHis -TEV vector (a modified pET vector) in E. coli BL21 (DE3) cells. Cells were grown at 37 °C in 2×YT containing antibiotics to an OD600 density of 1.5, 1 and 0.8 for Mcl-1, Bcl-xL and Bcl-2 respectively. Protein expression wa s induced by 0 .4 mM IPTG at 20 °C overnight for all proteins except for Bf l-1 which was e xpressed at 3 7 °C for four hours . Cells were lysed in 20 mM HEPES pH 7.5, 200 mM NaCl, 0.1% βME with Leupeptin/Aprotinin (Mcl-1), 25mM Tris pH 8.5, 200mM NaCl (Bcl-2), 50mM Tris pH 7.5, 200 mM NaCl (Bcl-xL) and 50 mM Tris pH 8, 500 mM NaCl, 0. 1% βME with Leupeptin/Aprotinin (Bf l-1). All […]
proteins were purified from the soluble fraction using Ni-NTA resin (QIAGEN), following the manufacturer’s instructions. For purification of TEV-cleaved protein, the amino-terminal His tag was cleaved by incubation with TEV protease and the protein was further purified by anion exchange (Source Q) and gel filtration chromatography (Superdex 75, Amersham Biosciences) in 20mM HEPES pH 7.0, 50 mM NaCl (Mcl-1), […]
NaCl, 0.1% βME (Bcl-xL) and 25 mM Tris pH 7.5, 150 mM NaCl, 25% Glycerol, 0.1% βME ( Bf l-1). His-tagged Mcl-1 protein was used for TR-FRET assay and HSQC-NMR.
His-TEV cleaved Mcl-1, Bcl-2, Bcl-xL, and Bf l-1 were used in fluorescent polarization and surface plasmon resonance binding assays.
Mutant Mcl-1 protein wa s prepared by the QuikChange site -directed mutagenesi s method (Stratagene) , where Arg263 was mutated to Ala. The R263A expression pla smid was transformed into Rosetta2 DE3 cells and purified by the same method as the wildtype protein. Cultures were grown to an OD 600 of 1. 5 at 37 °C in Terrific Broth, induced with 0. 4 mM IPTG, and express ed overnight at 20 °C. The follow-up purification was performed the same way as was for Mcl-1 wild-type recombinant

[4] = tested on: Eµ-myc lymphoma cells overexpressing Mcl-1; test: Eµ-myc lymphoma cell viability, flow cytometry; assay type: cell-based, mice; conditions: increasing concentrations, 15 h
Procedure: (§5) MEF cells, including wild-type, Bax/Bak double knockout, Bax−/− single knockout, and Bak−/− single knockout were tested and characterized (Supplementary Fig. S3). The cells were cultured in DMEM (Life Technologies), supplemented with 10% fetal bovine serum (FBS) (Thermo Scientific HyClone) and 1% Penicillin/streptomycin solution (Life Technologies). The retrovirally transduced lymphoma cells isolated from Eμ-myc transgenic mice were provided by Ricky W. Johnstone at the University of Melbourne, Melbourne, Australia and cultured as previously described[37],[65].
(§6) The Mcl-1, Bcl-2, and Bcl-xL retroviral transduced lymphoma Eμ-myc cells were seeded in 12-well plates at 0.5 × 10^6 cells/well. […] The cells were harvested and stained with violet LIVE/DEAD Fixable Dead Cell Stain Kit (Invitrogen) according to manufacturer’s protocol. The percentage of fluorescent positive cells was determined by flow cytometry and calculated using WinList 3.0.

[5] = tested on: Eµ-myc lymphoma cells overexpressing Bcl-2; test: Eµ-myc lymphoma cell viability, flow cytometry; assay type: cell-based, mice; conditions: increasing concentrations
Procedure: as §5, §6

Bcl-2 = target: T2, Bcl-2 (Homo sapiens, UniProt P10415, DEL35-91/INS34DVEENRTEAPEGTESE); test: FP-based competitive binding assay with FAM-Bid; conditions: FP
T2 construct: His tag (pHis-TEV vector) (N, cleaved yes); made in house; host or cells: E. coli BL21 (DE3)
T2 sequence (P10415 with tags, fused parts or gaps INS34DVEEN/V35R/G36T/A37E/P40E/DEL42-87/P88T/V89E/P90S/P91E): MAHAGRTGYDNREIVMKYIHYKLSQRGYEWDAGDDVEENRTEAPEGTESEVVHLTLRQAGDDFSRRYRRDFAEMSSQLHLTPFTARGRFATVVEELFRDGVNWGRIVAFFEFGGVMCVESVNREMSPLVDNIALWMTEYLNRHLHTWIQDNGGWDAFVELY
Procedure: as §1, §2, §3, §4
(§7) His-tagged proteins containing human Mcl-1 (residues 171–323), the isoform 2 construct of the human Bcl-2 [Bcl2-2 construct for protein production starts with the Bcl2 sequence of 1-34 a a, followed by the Bcl-xL seq uence of 35-50 aa, and ends with the Bcl-2 sequenc e of 92-202aa.], Bcl-xL (Human Bcl-xL protein, which has an internal deletion for the 45 -85 amino acid residues and a C -terminal truncation for the amino acid residues 212-233), and Bf l-1 (residues 1-151), were expres sed from the pHis -TEV vector (a modified pET vector) in E. coli BL21 (DE3) cells. Cells were grown at 37 °C in 2×YT containing antibiotics to an OD600 density of 1.5, 1 and 0.8 for Mcl-1, Bcl-xL and Bcl-2 respectively. Protein expression wa s induced by 0 .4 mM IPTG at 20 °C overnight for all proteins except for Bf l-1 which was e xpressed at 3 7 °C for four hours . Cells were lysed in 20 mM HEPES pH 7.5, 200 mM NaCl, 0.1% βME with Leupeptin/Aprotinin (Mcl-1), 25mM Tris pH 8.5, 200mM NaCl (Bcl-2), 50mM Tris pH 7.5, 200 mM NaCl (Bcl-xL) and 50 mM Tris pH 8, 500 mM NaCl, 0. 1% βME with Leupeptin/Aprotinin (Bf l-1). All

Bcl-xL = target: T3, Bcl-xL (Homo sapiens, UniProt Q07817, DEL45-85); test: FP-based competitive binding assay with FAM-Bid; conditions: FP
T3 construct: His tag (pHis-TEV vector) (N, cleaved yes); made in house; host or cells: E. coli BL21 (DE3)
T3 sequence (Q07817 with tags, fused parts or gaps DEL45-85 limits assumed): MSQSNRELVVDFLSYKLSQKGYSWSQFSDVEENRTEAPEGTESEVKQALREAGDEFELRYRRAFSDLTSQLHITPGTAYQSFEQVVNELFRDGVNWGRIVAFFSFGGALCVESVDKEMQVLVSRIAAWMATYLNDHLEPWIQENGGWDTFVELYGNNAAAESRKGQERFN
Procedure: as §1, §2, §3, §4, §7

Bfl-1 = target: T4, Bfl-1 (Homo sapiens, UniProt Q16548); test: FP-based competitive binding assay with FAM-Bid
T4 construct: Bf l-1 (residues 1-151); His tag (pHis-TEV vector) (N, cleaved yes); made in house; host or cells: E. coli BL21 (DE3)
T4 sequence (Q16548 1-151): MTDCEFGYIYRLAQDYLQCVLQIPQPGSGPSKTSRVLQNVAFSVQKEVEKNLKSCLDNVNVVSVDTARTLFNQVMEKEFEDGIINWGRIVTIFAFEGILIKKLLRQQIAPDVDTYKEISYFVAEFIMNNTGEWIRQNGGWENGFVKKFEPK
Procedure: as §1, §2, §3, §4, §7

SMILES	IC50 (Mcl-1 protein [1]) [µM]	IC50 (Mcl-1 protein [2]) [µM]	Ki (Mcl-1 protein [3]) [µM]	IC50 (Mcl-1 protein [3])	other results
O=C(CSc1nnc(-c2ccco2)c(-c2ccco2)n1)Nc1ccc(F)cc1 [Compound 34]	12.5 ± 1.7	11.6 ± 4	1.9 ± 0.2	8.1 ± 0.8 µM	
O=C(CSc1nnc(-c2cccs2)c(-c2cccs2)n1)Nc1ccccc1 [Compound 25]	> 100	> 100	> 25	> 100 µM	
c1ccc(CCSc2nnc(-c3ccco3)c(-c3ccco3)n2)cc1 [Compound 43]		5.2 ± 0.1	0.5 ± 0.1	2.2 ± 0.2 µM	
CC(C)c1ccc(NC(=O)CSc2nnc(-c3ccco3)c(-c3ccco3)n2)cc1 [Compound 29]	11.6 ± 1.1		0.5 ± 0.2	2.3 ± 0.7 µM	killing of Eµ-myc cells overexpressing Mcl-1 [4]: killing; effect on Eµ-myc cells overexpressing Bcl-2 [5]: selectivity
O=C(CSc1nnc(-c2ccco2)c(-c2ccco2)n1)Nc1cccc(-c2ccccc2)c1 [Compound 40]	7.3 ± 2.1	7.9 ± 4.7	1 ± 0.4	4.1 ± 1.5 µM	
CCc1ccc(NC(=O)CSc2nnc(-c3ccco3)c(-c3ccco3)n2)cc1 [Compound 28]	14.3 ± 2	5.5 ± 1.8	1.2 ± 0.1	5 ± 0.3 µM	
O=C(CSc1nnc(-c2ccccn2)c(-c2ccccn2)n1)Nc1ccccc1 [Compound 27]	> 100		> 12.5	> 50 µM	
CC(C)c1cccc(NC(=O)CSc2nnc(-c3ccco3)c(-c3ccco3)n2)c1 [Compound 38]			0.6 ± 0.1	2.6 ± 0.3 µM	killing of Eµ-myc cells overexpressing Mcl-1 [4]: killing; effect on Eµ-myc cells overexpressing Bcl-2 [5]: selectivity
O=C(Nc1ccccc1)c1ccc2nc(-c3ccco3)c(-c3ccco3)nc2c1 [Compound 45]			> 12.5	> 50 µM	
O=C(CSc1nnc(-c2ccco2)c(-c2ccco2)n1)Nc1ccccc1-c1ccccc1 [Compound 41]	1.9 ± 0.7	12.7 ± 4.5	1 ± 0.1	4.4 ± 0.5 µM	
COc1ccc(NC(=O)CSc2nnc(-c3ccco3)c(-c3ccco3)n2)cc1 [Compound 30]	47.4 ± 3.9		7.8 ± 1.8	33 µM and 33.1 µM	
CCc1cccc(NC(=O)CSc2nnc(-c3ccco3)c(-c3ccco3)n2)c1 [Compound 37]			1.2 ± 0.1	5.3 ± 0.5 µM	
Nc1ccc(NC(=O)CSc2nnc(-c3ccco3)c(-c3ccco3)n2)cc1 [Compound 33]	> 100		> 25	> 100 µM	
O=C(CSc1nnc(-c2ccco2)c(-c2ccco2)n1)Nc1ccc(Oc2ccccc2)cc1 [Compound 31]		9 ± 3.8	1.6 ± 0.4	6.9 ± 1.9 µM	
c1ccc(CCCSc2nnc(-c3ccco3)c(-c3ccco3)n2)cc1 [Compound 42]		2.4 ± 0.1	0.4 ± 0.1	1.5 ± 0.3 µM	IC50 (Bcl-2): > 100 µM; Ki (Bcl-2): > 25 µM; IC50 (Bcl-xL): > 100 µM; Ki (Bcl-xL): > 20 µM; IC50 (Bfl-1; Bfl-1): 11.4 ± 0.1 µM; Ki (Bfl-1; FP): 1.6 ± 0.1 µM
Cc1ccc(NC(=O)c2ccc3nc(-c4ccco4)c(-c4ccco4)nc3c2)cc1 [Compound 46]			15.8 ± 2.3	67.1 ± 9.1 µM	
CN(C)c1ccc(NC(=O)CSc2nnc(-c3ccco3)c(-c3ccco3)n2)cc1 [Compound 32]	> 100	> 80	> 25	> 100 µM	
O=C(CSc1nnc(-c2ccco2)c(-c2ccco2)n1)Nc1ccc(Cc2ccccc2)cc1 [Compound 36]	4.2 ± 0.4	5.1 ± 1.5	0.6 ± 0.1	2.5 ± 0.6 µM	
O=C(CSc1nnc(-c2ccccc2)c(-c2ccccc2)n1)Nc1ccccc1 [Compound 26]	> 100		> 5	> 20 µM	
O=C(CSc1nnc(-c2ccco2)c(-c2ccco2)n1)Nc1ccc(-c2ccccc2)cc1 [Compound 35]	5.1 ± 2.3	5 ± 2.7	0.6 ± 0.1	2.5 ± 0.1 µM	
